{
  "source": "patent US6316423A",
  "about": "“Method of treating ischemic, hypoxic and anoxic brain damage” (priority 1999, dated 2001)",
  "format_in_all_cases": "in vivo, gerbil",
  "key": {"[1]": {"system": "gerbils exposed to 10 minutes of brain ischemia", "assay": "Chronic ADAC treatment followed by 10 minutes of ischemia", "conditions": "0.025, 0.050 or 0.075 mg for 60 days, one day rest", "protocol": "The gerbils were then subjected to 10 minutes of brain ischemia and allowed to recover."}, "[2]": {"system": "microtubule associated protein 2 (MAP-2)", "assay": "MAP-2 preservation in CA1 after 10 minute ischemia, postischemic ADAC", "conditions": "100 μg/kg at 2, 6 or 12 h postischemia", "text": "Animals were allowed to survive either 2 or 7 days. They were then perfused with a freshly made 3.5 solution of paraformaldehyde in phosphate buffered saline (pH 7.4). After removal, brains were cut at 40 μm, and the sections were stained immunohistochemically with a monoclonal MAP-2 antibody (Sigma) diluted 1:500-1000. Standard peroxidase anti-peroxidase procedure of ABC complex with Vector kit (Hsu et al., 1981) intensified with heavy metal (Adams, 1981) was used. For immunofluorescent studies, the sections were incubated at 4° C. with the primary antibody overnight. Following three 5-10 minute washes, the sections were exposed to the secondary antibodies, i.e., fluorescein isothiocyanate, rhodamine isothiocyanate, and Texas Red conjugated goat anti-mouse IgG. The secondary antibodies were diluted at 1:20-100 in 0.1M phosphate buffer. Qualitative morphological and immunostaining characteristics of the sections were studied using an epifluorescent microscope (Nikon Labophot) equipped with filters (Nikon B2 and Nikon G1B) appropriate for the detection of the secondary antibodies.\nQuantitative analysis of MAP-2 presence in the dendritic fields of CA1 was made using a computer image analysis system (Biographics Inc., Winston-Salem, N.C.)."}, "[3]": {"system": "cortex, hippocampal CA1 sector, and striatum", "assay": "Nissl histology of neuronal loss, preischemic ADAC", "conditions": "two weeks after ischemia", "protocol": "The gerbils of Example 3 were subjected to examination procedures subsequent to the water maze tests described in Example 3. One day after the last postischemic water maze trial, all animals were heavily anesthetized with Nembutal and perfused through the aorta with buffered (pH 7.4) formaldehyde. Frozen sections of the brains were made as described previously (Lin et al., supra). The sections were stained using the method of Nissl, and the extent of the neuronal loss was determined in the cortex, hippocampal CA1 sector, and striatum following the published protocol of von Lubitz et al. (von Lubitz, 1992, supra; von Lubitz, 1994, supra)."}, "[4]": {"system": "gerbils exposed to 10 minutes of brain ischemia", "assay": "Mortality after 10 min ischemia, preischemic ADAC", "conditions": "0.1 mg/kg preischemic, entire monitoring period (14 days); control 60%", "protocol": "Seven control animals out of 20 (35%) died during the initial 12 hour period following 10 minutes of ischemia. Three additional control gerbils died between day 1 and 3, and 2 additional animals died 5-8 hours following a water maze trial by day 14. Thus, the overall death rate of the control group was 60%. In contrast, in the ADAC-treated group only 2 animals out of 10 died (20%) during the entire monitoring period, one on day 3 and one on day 6.\n(§1) Prior to subjecting the gerbils to 10 minutes of ischemia, the gerbils were randomly divided into the control and the drug testing groups. […] During post-ischemic recovery, animals were monitored each day for signs of functional damage (e.g., pareses) that might affect their subsequent water maze performance. Postischemic mortality was also monitored every day."}, "[5]": {"system": "gerbils subjected to 10 minutes of ischemia", "assay": "Open field locomotor activity 7 days after ischemia", "conditions": "preischemic ADAC, 10 minute period, control 235±3 cm, P<0.001", "protocol": "as §1\nSince locomotor hyperactivation may result in a spurious improvement of performance in the water maze (von Lubitz et al., 1993, supra), open field activity of all gerbils was assessed 7 days after the occlusion (i.e., one day prior to the water maze experiments). During locomotor testing, horizontal displacement of each gerbil was monitored in 2 minute epochs for 10 minutes using a Digiscan activity monitor (available from Omnitech Electronics, Colombus, Ohio)."}, "[6]": {"system": "gerbils exposed to 10 minutes of brain ischemia", "assay": "Dose-response of preischemic ADAC on survival after 10 minutes of ischemia", "conditions": "15 min preischemia, control 40%", "text": "This higher selectivity results in lower quantities of drug administration required for maximum neuroprotection. Lower administered quantities in turn, result in attenuation or elimination of side-effects."}, "[7]": {"assay": "Cardiovascular effects and body temperature of ADAC in nonischemic (normoxic) gerbils", "conditions": "for Blood pressure / Cardiac rate: 100 μg/kg ADAC, ± SEM", "text": "Blood pressure was monitored using a Harvard Apparatus (South Natick, Mass.) rat tail blood pressure monitor (von Lubitz et al., 1994 supra), while a Silogic EC-60 cardiac and respiratory monitor (Stewartstown, Pa.) was used to measure cardiac rate. EEG clip electrodes were attached to the unshaven loose skin of the armpits and to both thighs saturated with EEG gel."}, "[8]": {"system": "brain ischemia", "assay": "Comparison of effective neuroprotective concentrations with other A1 agonists", "conditions": "vs other A1 adenosine receptor agonists examined thus far"}},
  "data": [
    {"compound": "NCCNC(=O)Cc1ccc(NC(=O)Cc2ccc(Nc3ncnc4c3ncn4[C@@H]3O[C@H](CO)[C@@H](O)[C@H]3O)cc2)cc1", "note": "[ADAC]", "values": [
      {"measurement": "survival rate after chronic treatment followed by ischemia", "setting": "[1]; FIG. 7A", "value": "attenuated the effects of brain ischemia"},
      {"measurement": "neuronal loss after chronic treatment followed by ischemia", "setting": "[1]; FIG. 7B", "value": "attenuated the effects of brain ischemia"},
      {"measurement": "loss of MAP-2 density in CA1", "setting": "[2]; 2 days after ischemia, control 50% loss", "value": "no loss"},
      {"measurement": "decrease of MAP-2 density in CA1", "setting": "[2]; 7 days after occlusion", "value": "approximately 15%"},
      {"measurement": "hippocampal CA1 neurons surviving", "setting": "[3]; control 23%", "value": 81, "unit": "%"},
      {"measurement": "neuronal loss in cortex and striatum", "setting": "[3]; control 83% (cortex) and 25% (striatum) surviving", "value": "complete elimination of neuronal loss"},
      {"measurement": "death rate", "setting": "[4]", "value": 20, "unit": "%"},
      {"measurement": "open field activity (horizontal displacement)", "setting": "[5]", "value": "135±6", "unit": "cm"},
      {"measurement": "survival rate", "setting": "[6]; 0.025 mg/kg", "value": 30, "unit": "%"},
      {"measurement": "survival rate", "setting": "[6]; 0.050 mg/kg", "value": 60, "unit": "%"},
      {"measurement": "survival rate (plateau)", "setting": "[6]; 75, 100, or 200 mg/kg (so in the source)", "value": 80, "unit": "%"},
      {"measurement": "Blood pressure", "setting": "[7]; 5 min post injection", "value": "83 ± 1", "unit": "mm Hg"},
      {"measurement": "Cardiac rate", "setting": "[7]; 5 min post injection", "value": "385 ± 6", "unit": "beats/min"},
      {"measurement": "Blood pressure", "setting": "[7]; 15 min post injection", "value": "81 ± 1", "unit": "mm Hg"},
      {"measurement": "Cardiac rate", "setting": "[7]; 15 min post injection", "value": "382 ± 7", "unit": "beats/min"},
      {"measurement": "Blood pressure", "setting": "[7]; 30 min post injection", "value": "82 ± 2", "unit": "mm Hg"},
      {"measurement": "Cardiac rate", "setting": "[7]; 30 min post injection", "value": "383 ± 8", "unit": "beats/min"},
      {"measurement": "Blood pressure", "setting": "[7]; 60 min post injection", "value": "80 ± 2", "unit": "mm Hg"},
      {"measurement": "Cardiac rate", "setting": "[7]; 60 min post injection", "value": "383 ± 6", "unit": "beats/min"},
      {"measurement": "changes of body temperature", "setting": "[7]; 100 μg/kg, nonischemic gerbils", "value": "did not cause any significant changes"},
      {"measurement": "changes of cardiac rate", "setting": "[7]; 100 μg/kg, nonischemic gerbils", "value": "did not cause any significant changes"},
      {"measurement": "changes of mean arterial blood pressure", "setting": "[7]; 100 μg/kg, nonischemic gerbils", "value": "did not cause any significant changes"},
      {"measurement": "bradycardia, hypotension, or decreased cerebral (cortical) blood flow", "setting": "[7]; 0.1 mg/kg intraperitoneal, normoxic gerbils, within 120 minutes", "value": "not accompanied by a statistically significant bradycardia, hypotension, or decreased cerebral (cortical) blood flow"},
      {"measurement": "cardiovascular effects at higher concentrations", "setting": "[7]; 0.3 mg/kg and beyond, within 30 minutes of administration", "value": "manifests cardiovascular effects within 30 minutes of administration of 0.3 mg/kg and beyond"},
      {"measurement": "level of efficacy versus other A1 adenosine receptor agonists", "setting": "[8]", "value": "about an order of magnitude better"}
    ]}
  ]
}
